# Columns and labels:
# [1] = target: T1, HDAC6 (Homo sapiens, UniProt Q9UBN7); test: HDAC6 enzyme inhibition assay (fluorimetric); format: biochemical; conditions: 1 μM compound; 3 h pre-incubation; recombinant full length HDAC6; read-out: HDAC6 % inh @ 1 μM
# T1 sequence (Q9UBN7 1-1215): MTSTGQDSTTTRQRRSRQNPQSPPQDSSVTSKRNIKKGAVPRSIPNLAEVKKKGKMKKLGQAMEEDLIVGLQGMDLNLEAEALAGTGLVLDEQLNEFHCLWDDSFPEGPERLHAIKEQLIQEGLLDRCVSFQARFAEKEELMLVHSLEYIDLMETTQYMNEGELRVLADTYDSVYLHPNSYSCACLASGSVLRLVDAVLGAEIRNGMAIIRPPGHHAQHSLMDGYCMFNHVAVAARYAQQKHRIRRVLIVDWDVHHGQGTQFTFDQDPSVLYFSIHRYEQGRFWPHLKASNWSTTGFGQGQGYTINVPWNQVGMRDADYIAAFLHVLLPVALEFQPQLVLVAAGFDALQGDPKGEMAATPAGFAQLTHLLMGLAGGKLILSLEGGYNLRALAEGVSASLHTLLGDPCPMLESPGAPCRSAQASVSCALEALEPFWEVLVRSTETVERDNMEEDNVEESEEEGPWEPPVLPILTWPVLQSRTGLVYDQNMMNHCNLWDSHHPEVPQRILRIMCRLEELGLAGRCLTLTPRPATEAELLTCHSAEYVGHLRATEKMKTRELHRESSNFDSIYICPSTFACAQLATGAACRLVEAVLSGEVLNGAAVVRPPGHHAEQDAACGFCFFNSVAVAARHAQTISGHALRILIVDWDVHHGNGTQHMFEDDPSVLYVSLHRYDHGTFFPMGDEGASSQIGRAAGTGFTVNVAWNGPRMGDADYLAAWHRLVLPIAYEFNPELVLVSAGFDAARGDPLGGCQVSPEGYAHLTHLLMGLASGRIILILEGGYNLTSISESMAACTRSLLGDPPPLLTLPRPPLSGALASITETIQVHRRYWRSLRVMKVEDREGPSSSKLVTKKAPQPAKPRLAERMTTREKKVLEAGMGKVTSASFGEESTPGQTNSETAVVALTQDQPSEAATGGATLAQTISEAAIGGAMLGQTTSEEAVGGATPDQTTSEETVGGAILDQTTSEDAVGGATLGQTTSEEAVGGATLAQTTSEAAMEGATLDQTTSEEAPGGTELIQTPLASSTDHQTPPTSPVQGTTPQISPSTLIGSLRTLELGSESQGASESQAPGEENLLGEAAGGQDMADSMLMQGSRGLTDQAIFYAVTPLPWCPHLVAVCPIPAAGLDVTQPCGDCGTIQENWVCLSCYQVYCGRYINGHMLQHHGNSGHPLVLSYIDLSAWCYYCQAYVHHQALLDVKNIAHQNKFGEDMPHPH
# Protocol: (§1) HDAC6 and HDAC2 Enzyme Inhibition Assay
# (§2) A fluorimetric assay was used for testing the activity of compounds of the invention against HDAC6 and HDAC2.
# (§3) The compounds were dissolved in DMSO. Serial dilutions were prepared in DMSO and then diluted 1:10 in HDAC assay buffer (Tris-buffered solution, BPS Bioscience Inc. #50031). 5 μl of the compound dilution was added to a 50 μl reaction so that the final concentration of DMSO was 1%.
# (§4) The compounds were pre-incubated in duplicate at RT for 3 hours in a mixture containing HDAC assay buffer, 5 μg BSA and recombinant HDAC enzyme (see table above). The enzymatic reactions were initiated by the addition of a fluorogenic, acetylated peptide substrate based on a histone protein (BPS Bioscience Inc. #50037) to a final concentration of 10 μM. The enzymatic reaction proceeded for 30 minutes at 37° C. Then, 50 μl of 2× HDAC Developer, which contains peptidase activity and Trichostatin A (BPS Bioscience Inc. #50030) was added and the plate was incubated at RT for an additional 15 minutes. Fluorescence intensity was measured at an excitation of 360 nm and an emission of 460 nm using a Tecan Infinite M1000 microplate reader.
# (§5) Trichostatin A (TSA, Selleckchem #S1045) was used as reference inhibitor.
# (§6) The fluorescent intensity data were analyzed using the computer software Graphpad Prism (GraphPad Software, San Diego, CA). 100% activity was defined as the fluorescent intensity (Ft) in the absence of the compound. 0% activity was defined as the fluorescent intensity (Fb) in the absence of the enzyme. The percent activity in the presence of each compound was calculated according to the following equation: % activity=(F−Fb)/(Ft−Fb), where F=the fluorescent intensity in the presence of the compound.
# [2] = target: T2, HDAC2 (Homo sapiens, UniProt Q92769); test: HDAC2 enzyme inhibition assay (fluorimetric); format: biochemical; conditions: 1 μM compound; 3 h pre-incubation; recombinant full length HDAC2; read-out: HDAC2 % inh @ 1 μM
# T2 construct: (full length with C-terminal His-tag); His (C); purchased BPS Bioscience Inc. 50002
# T2 sequence (Q92769 whole entry): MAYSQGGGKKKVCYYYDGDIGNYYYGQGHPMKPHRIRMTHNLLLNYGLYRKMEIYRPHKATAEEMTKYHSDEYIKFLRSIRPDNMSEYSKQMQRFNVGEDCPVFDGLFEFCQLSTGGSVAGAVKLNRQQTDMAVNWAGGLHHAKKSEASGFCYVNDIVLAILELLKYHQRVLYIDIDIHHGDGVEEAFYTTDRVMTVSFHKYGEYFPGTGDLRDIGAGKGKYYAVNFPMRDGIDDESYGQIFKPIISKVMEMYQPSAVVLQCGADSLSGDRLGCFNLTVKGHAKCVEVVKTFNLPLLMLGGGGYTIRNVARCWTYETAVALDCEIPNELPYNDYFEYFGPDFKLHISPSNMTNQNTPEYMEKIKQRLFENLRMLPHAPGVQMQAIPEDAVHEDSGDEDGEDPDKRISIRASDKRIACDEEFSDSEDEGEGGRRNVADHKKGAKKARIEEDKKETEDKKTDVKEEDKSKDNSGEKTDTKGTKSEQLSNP
# Protocol: as §1, §2, §3, §4, §5, §6
# [3] = target: T1, HDAC6; test: In vitro cell-based assay: acetylation levels of Alpha-Tubulin by Western Blot in MOLP8 cells; set-up: endogenous in cells; host or cells: MOLP8; conditions: 18 h, acetyl-alpha-tubulin relative band intensity, ACY-1215 1 μM = 100%
# Method in brief: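 MOLP8 cells treated with compounds at 5 and 1 μM for 18 h at 37° C.; acetyl-alpha-tubulin measured by Western blot of RIPA extracts (7 μg protein). Bands normalized to total protein or beta-actin, expressed relative to ACY-1215 1 μM (100%), then classed.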
inhibition at 1 µM [1] [%],inhibition at 1 µM [2] [%],Cellular activity @1 uM [3],Cellular activity @5 uM [3],Structure (SMILES)
86,6,+ (50-150),++ (150-300),"CCCCn1c(C(=O)N(CC)CC)cc2cc(-c3cc(-c4noc(C(F)(F)F)n4)ccn3)ncc21 [Example 1w, 1-Butyl-N,N-diethyl-5-(4-(5-(trifluoromethyl)-1,2,4-oxadiazol-3-yl)pyridin-2-yl)-1H-pyrrolo[2,3-c]pyridine-2-carboxamide]"
95,16,++ (150-300),+++ (>300),"COCCn1ccc2cc(-c3cc(-c4noc(C(F)(F)F)n4)ccn3)ncc21 [Example 1x, 3-(2-(1-(2-Methoxyethyl)-1H-pyrrolo[2,3-c]pyridin-5-yl)pyridin-4-yl)-5-(trifluoromethyl)-1,2,4-oxadiazole]"
92,27,+ (50-150),++ (150-300),"O=C(CN1CCC(F)(F)CC1)Nc1ccnc(-c2cc(-c3noc(C(F)(F)F)n3)ccn2)c1 [Example 1y, 2-(4,4-Difluoropiperidin-1-yl)-N-(4′-(5-(trifluoromethyl)-1,2,4-oxadiazol-3-yl)-[2,2′-bipyridin]-4-yl)acetamide]"
97,46,+ (50-150),++ (150-300),"FC1(F)CCN(CCNc2ccnc(-c3cc(-c4noc(C(F)(F)F)n4)ccn3)c2)CC1 [Example 1z, N-(2-(4,4-Difluoropiperidin-1-yl)ethyl)-4′-(5-(trifluoromethyl)-1,2,4-oxadiazol-3-yl)-[2,2′-bipyridin]-4-amine]"
90,30,+ (50-150),+++ (>300),"CCCCn1cc(CN(C)C)c2cc(-c3cc(-c4noc(C(F)(F)F)n4)ccn3)ncc21 [Example 3, 1-(1-Butyl-5-(4-(5-(trifluoromethyl)-1,2,4-oxadiazol-3-yl)pyridin-2-yl)-1-pyrrolo[2,3-c]pyridin-3-yl)-N,N-dimethylmethanamine]"
96,25,++ (150-300),+++ (>300),"FC(F)(F)c1nc(-c2ccnc(-c3n[nH]c4cccnc34)c2)no1 [Example 4, 3-(2-(1H-Pyrazolo[4,3-b]pyridin-3-yl)pyridin-4-yl)-5-(trifluoromethyl)-1,2,4-oxadiazole]"
95,29,++ (150-300),++ (150-300),"O=C(Nc1ccnc(-c2cc(-c3noc(C(F)(F)F)n3)ccn2)c1)C1CCCNC1 (stereo not shown) [Example 5, N-(4′-(5-(trifluoromethyl)-1,2,4-oxadiazol-3-yl)-[2,2′-bipyridin]-4-yl)piperidine-3-carboxamide]"
